Data taken from ChEMBL document CHEMBL3769348, “A structureactivity relationship study of the positive allosteric modulator LY2033298 at the M4muscarinic acetylcholine receptor” (Medchemcomm, 2015).
Activity calls are given as the source filed them. The calls are words filed in the database; no cut-off is given here.

Biological target: T1, Muscarinic acetylcholine receptor M4 (Homo sapiens) (UniProt P08173)
T1 sequence (whole entry): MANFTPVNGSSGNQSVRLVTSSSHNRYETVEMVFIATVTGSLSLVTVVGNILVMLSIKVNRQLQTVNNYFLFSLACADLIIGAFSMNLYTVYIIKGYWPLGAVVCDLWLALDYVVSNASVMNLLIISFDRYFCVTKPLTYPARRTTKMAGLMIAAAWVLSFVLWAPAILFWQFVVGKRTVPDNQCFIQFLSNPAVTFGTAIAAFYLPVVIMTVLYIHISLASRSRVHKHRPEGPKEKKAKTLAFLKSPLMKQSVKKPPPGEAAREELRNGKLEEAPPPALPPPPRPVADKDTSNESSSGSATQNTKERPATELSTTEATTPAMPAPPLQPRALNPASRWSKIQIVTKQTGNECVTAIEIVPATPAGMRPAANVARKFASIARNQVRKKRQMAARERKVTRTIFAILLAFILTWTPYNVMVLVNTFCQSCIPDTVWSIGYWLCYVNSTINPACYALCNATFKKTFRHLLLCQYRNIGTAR
Assay: Displacement of [3H]NMS from human M4 mAChR expressed in FIpIn-CHO cells assessed as ligand affinity after 4 hrs by scintillation counting method in the presence of ACh
Format: cell-based

In order of rising Activity:
1. CCCCOc1nc2sc(C(=O)NC3CC3)c(N)c2c(C)c1Cl  22.4
2. CCOc1nc2sc(C(=O)NC3CC3)c(N)c2c(C)c1Cl  95.5
3. CCCCNC(=O)c1sc2nc(OC)c(Cl)c(C)c2c1N  123
4. COc1nc2sc(C(=O)NC3CC3)c(N)c2c(C)c1I  269
5. COc1nc2sc(C(=O)NC3CC3)c(N)c2c(C)c1Br  347
6. CCNC(=O)c1sc2nc(OC)c(Cl)c(C)c2c1N  562
7. COc1nc2sc(C(=O)NC3CC3)c(N)c2c(C)c1Cl  1740

In order of falling log(activity):
1. COc1nc2sc(C(=O)NC3CC3)c(N)c2c(C)c1Cl  3.24
2. CCNC(=O)c1sc2nc(OC)c(Cl)c(C)c2c1N  2.75
3. COc1nc2sc(C(=O)NC3CC3)c(N)c2c(C)c1Br  2.54
4. COc1nc2sc(C(=O)NC3CC3)c(N)c2c(C)c1I  2.43
5. CCCCNC(=O)c1sc2nc(OC)c(Cl)c(C)c2c1N  2.09
6. CCOc1nc2sc(C(=O)NC3CC3)c(N)c2c(C)c1Cl  1.98
7. CCCCOc1nc2sc(C(=O)NC3CC3)c(N)c2c(C)c1Cl  1.35

Biological target: T1, Muscarinic acetylcholine receptor M4 (Homo sapiens)
Assay: Allosteric modulation of human M4 mAChR expressed in FIpIn-CHO cells assessed as ERK1/2 phosphorylation measured overall cooperativity after 6 mins by Alphascreen assay
Format: cell-based

In order of falling Activity:
1. COc1nc2sc(C(=O)NC3CC3)c(N)c2c(C)c1Cl  240
2. COc1nc2sc(C(=O)NC3CC3)c(N)c2c(C)c1Br  81.3
3. Cc1nc2sc(C(=O)NC3CC3)c(N)c2c(C)c1Cl  77.6
4. CCNC(=O)c1sc2nc(OC)c(Cl)c(C)c2c1N  69.2
5. CCOc1nc2sc(C(=O)NC3CC3)c(N)c2c(C)c1Cl  61.7
6. Cc1cc(C)c2c(N)c(C(=O)NC3CC3)sc2n1  52.5
7. COc1cc(C)c2c(N)c(C(=O)NC3CC3)sc2n1  28.8
8. CCCCNC(=O)c1sc2nc(OC)c(Cl)c(C)c2c1N  15.5
9. Cc1nc(C)c2c(N)c(C(=O)NC3CC3)sc2n1  14.1
10. COc1nc2sc(C(=O)NC3CC3)c(N)c2c(C)c1I  9.3
11. CCCCOc1nc2sc(C(=O)NC3CC3)c(N)c2c(C)c1Cl  2.5
12. CCCCCCOc1nc2sc(C(=O)NC3CC3)c(N)c2c(C)c1Cl  2
13. CCCCCCNC(=O)c1sc2nc(OC)c(Cl)c(C)c2c1N  1.3

In order of falling log(activity):
1. COc1nc2sc(C(=O)NC3CC3)c(N)c2c(C)c1Cl  2.38
2. COc1nc2sc(C(=O)NC3CC3)c(N)c2c(C)c1Br  1.91
3. Cc1nc2sc(C(=O)NC3CC3)c(N)c2c(C)c1Cl  1.89
4. CCNC(=O)c1sc2nc(OC)c(Cl)c(C)c2c1N  1.84
5. CCOc1nc2sc(C(=O)NC3CC3)c(N)c2c(C)c1Cl  1.79
6. Cc1cc(C)c2c(N)c(C(=O)NC3CC3)sc2n1  1.72
7. COc1cc(C)c2c(N)c(C(=O)NC3CC3)sc2n1  1.46
8. CCCCNC(=O)c1sc2nc(OC)c(Cl)c(C)c2c1N  1.19
9. Cc1nc(C)c2c(N)c(C(=O)NC3CC3)sc2n1  1.15
10. COc1nc2sc(C(=O)NC3CC3)c(N)c2c(C)c1I  0.97
11. CCCCOc1nc2sc(C(=O)NC3CC3)c(N)c2c(C)c1Cl  0.4
12. CCCCCCOc1nc2sc(C(=O)NC3CC3)c(N)c2c(C)c1Cl  0.3
13. CCCCCCNC(=O)c1sc2nc(OC)c(Cl)c(C)c2c1N  0.13

In the case of CCCCCC(=O)Nc1c(C(=O)NC2CC2)sc2nc(OC)c(Cl)c(C)c12, the Activity is reported as “inactive”.
COc1nc2sc(C(=O)NC3CC3)c(NC(C)=O)c2c(C)c1Cl was tested, and the Activity was “inactive”.
For CCCC(=O)Nc1c(C(=O)NC2CC2)sc2nc(OC)c(Cl)c(C)c12, the Activity was “inactive”.

In the case of CCCCCC(=O)Nc1c(C(=O)NC2CC2)sc2nc(OC)c(Cl)c(C)c12, the “log(activity)” value is reported as “inactive”.
In the case of COc1nc2sc(C(=O)NC3CC3)c(NC(C)=O)c2c(C)c1Cl, the “log(activity)” value is reported as “inactive”.
With CCCC(=O)Nc1c(C(=O)NC2CC2)sc2nc(OC)c(Cl)c(C)c12 the “log(activity)” value was “inactive”.

Biological target: T2, Muscarinic acetylcholine receptor M4 (Homo sapiens, UniProt P08173)
T2 sequence (P08173 whole entry): T1 sequence (whole entry)
Assay: Displacement of [3H]NMS from human M4 mAChR expressed in FIpIn-CHO cells after 4 hrs by scintillation counting method in the presence of ACh
Format: cell-based

In order of rising Ki:
1. CCOc1nc2sc(C(=O)NC3CC3)c(N)c2c(C)c1Cl  200 nM
2. COc1nc2sc(C(=O)NC3CC3)c(N)c2c(C)c1Cl  400 nM
3. COc1nc2sc(C(=O)NC3CC3)c(N)c2c(C)c1Br  520 nM
4. COc1nc2sc(C(=O)NC3CC3)c(N)c2c(C)c1I  1700 nM
5. CCCCOc1nc2sc(C(=O)NC3CC3)c(N)c2c(C)c1Cl  2700 nM
6. CCCCNC(=O)c1sc2nc(OC)c(Cl)c(C)c2c1N  3200 nM
7. CCNC(=O)c1sc2nc(OC)c(Cl)c(C)c2c1N  4300 nM

Biological target: T1, Muscarinic acetylcholine receptor M4 (Homo sapiens)
Assay: Allosteric modulation of human M4 mAChR expressed in FIpIn-CHO cells assessed as ERK1/2 phosphorylation after 6 mins by Alphascreen assay in the presence of ACh
Format: cell-based

In order of falling Kb:
1. Cc1nc(C)c2c(N)c(C(=O)NC3CC3)sc2n1  12500 nM
2. COc1cc(C)c2c(N)c(C(=O)NC3CC3)sc2n1  2800 nM
3. CCOc1nc2sc(C(=O)NC3CC3)c(N)c2c(C)c1Cl  800 nM
4. CCCCNC(=O)c1sc2nc(OC)c(Cl)c(C)c2c1N  500 nM
5. Cc1nc2sc(C(=O)NC3CC3)c(N)c2c(C)c1Cl  400 nM
6. COc1nc2sc(C(=O)NC3CC3)c(N)c2c(C)c1Cl  400 nM
7. COc1nc2sc(C(=O)NC3CC3)c(N)c2c(C)c1Br  300 nM
8. CCCCCCNC(=O)c1sc2nc(OC)c(Cl)c(C)c2c1N  200 nM
9. CCNC(=O)c1sc2nc(OC)c(Cl)c(C)c2c1N  200 nM
10. CCCCOc1nc2sc(C(=O)NC3CC3)c(N)c2c(C)c1Cl  200 nM
11. COc1nc2sc(C(=O)NC3CC3)c(N)c2c(C)c1I  200 nM
12. CCCCCCOc1nc2sc(C(=O)NC3CC3)c(N)c2c(C)c1Cl  40 nM

In order of falling pKb:
1. CCCCCCOc1nc2sc(C(=O)NC3CC3)c(N)c2c(C)c1Cl  7.42
2. CCCCOc1nc2sc(C(=O)NC3CC3)c(N)c2c(C)c1Cl  6.81
3. CCNC(=O)c1sc2nc(OC)c(Cl)c(C)c2c1N  6.73
4. CCCCCCNC(=O)c1sc2nc(OC)c(Cl)c(C)c2c1N  6.7
5. COc1nc2sc(C(=O)NC3CC3)c(N)c2c(C)c1I  6.66
6. COc1nc2sc(C(=O)NC3CC3)c(N)c2c(C)c1Br  6.52
7. Cc1nc2sc(C(=O)NC3CC3)c(N)c2c(C)c1Cl  6.45
8. COc1nc2sc(C(=O)NC3CC3)c(N)c2c(C)c1Cl  6.41
9. CCCCNC(=O)c1sc2nc(OC)c(Cl)c(C)c2c1N  6.29
10. CCOc1nc2sc(C(=O)NC3CC3)c(N)c2c(C)c1Cl  6.1
11. COc1cc(C)c2c(N)c(C(=O)NC3CC3)sc2n1  5.55
12. Cc1nc(C)c2c(N)c(C(=O)NC3CC3)sc2n1  4.9

With CCCCCC(=O)Nc1c(C(=O)NC2CC2)sc2nc(OC)c(Cl)c(C)c12 the Kb was “inactive”.
With COc1nc2sc(C(=O)NC3CC3)c(NC(C)=O)c2c(C)c1Cl the Kb was “inactive”.
CCCC(=O)Nc1c(C(=O)NC2CC2)sc2nc(OC)c(Cl)c(C)c12 was tested, and the Kb was “inactive”.

For CCCCCC(=O)Nc1c(C(=O)NC2CC2)sc2nc(OC)c(Cl)c(C)c12, the pKb was “inactive”.
With COc1nc2sc(C(=O)NC3CC3)c(NC(C)=O)c2c(C)c1Cl the pKb was “inactive”.
In the case of CCCC(=O)Nc1c(C(=O)NC2CC2)sc2nc(OC)c(Cl)c(C)c12, the pKb is reported as “inactive”.

Biological target: T1, Muscarinic acetylcholine receptor M4 (Homo sapiens)
Assay: Intrinsic activity at human M4 mAChR expressed in FIpIn-CHO cells assessed as ERK1/2 phosphorylation after 6 mins by Alphascreen assay in the presence of ACh
Format: cell-based

In order of falling Intrinsic activity:
1. COc1nc2sc(C(=O)NC3CC3)c(N)c2c(C)c1Br  17.8
2. Cc1nc2sc(C(=O)NC3CC3)c(N)c2c(C)c1Cl  12.9
3. CCOc1nc2sc(C(=O)NC3CC3)c(N)c2c(C)c1Cl  9.3
4. CCNC(=O)c1sc2nc(OC)c(Cl)c(C)c2c1N  8.7
5. COc1nc2sc(C(=O)NC3CC3)c(N)c2c(C)c1Cl  8.5
6. Cc1cc(C)c2c(N)c(C(=O)NC3CC3)sc2n1  5.9
7. COc1cc(C)c2c(N)c(C(=O)NC3CC3)sc2n1  4.6
8. Cc1nc(C)c2c(N)c(C(=O)NC3CC3)sc2n1  3.1
9. CCCCNC(=O)c1sc2nc(OC)c(Cl)c(C)c2c1N  2.8
10. COc1nc2sc(C(=O)NC3CC3)c(N)c2c(C)c1I  2.3
11. CCCCCCNC(=O)c1sc2nc(OC)c(Cl)c(C)c2c1N  0.4
12. CCCCOc1nc2sc(C(=O)NC3CC3)c(N)c2c(C)c1Cl  0.3
13. CCCCCCOc1nc2sc(C(=O)NC3CC3)c(N)c2c(C)c1Cl  0.2

In order of falling log(IA):
1. COc1nc2sc(C(=O)NC3CC3)c(N)c2c(C)c1Br  1.25
2. Cc1nc2sc(C(=O)NC3CC3)c(N)c2c(C)c1Cl  1.11
3. CCOc1nc2sc(C(=O)NC3CC3)c(N)c2c(C)c1Cl  0.97
4. CCNC(=O)c1sc2nc(OC)c(Cl)c(C)c2c1N  0.94
5. COc1nc2sc(C(=O)NC3CC3)c(N)c2c(C)c1Cl  0.93
6. Cc1cc(C)c2c(N)c(C(=O)NC3CC3)sc2n1  0.77
7. COc1cc(C)c2c(N)c(C(=O)NC3CC3)sc2n1  0.66
8. Cc1nc(C)c2c(N)c(C(=O)NC3CC3)sc2n1  0.49
9. CCCCNC(=O)c1sc2nc(OC)c(Cl)c(C)c2c1N  0.44
10. COc1nc2sc(C(=O)NC3CC3)c(N)c2c(C)c1I  0.37
11. CCCCCCNC(=O)c1sc2nc(OC)c(Cl)c(C)c2c1N  -0.35
12. CCCCOc1nc2sc(C(=O)NC3CC3)c(N)c2c(C)c1Cl  -0.51
13. CCCCCCOc1nc2sc(C(=O)NC3CC3)c(N)c2c(C)c1Cl  -0.75

For CCCCCC(=O)Nc1c(C(=O)NC2CC2)sc2nc(OC)c(Cl)c(C)c12, the Intrinsic activity was “inactive”.
COc1nc2sc(C(=O)NC3CC3)c(NC(C)=O)c2c(C)c1Cl was tested, and the Intrinsic activity was “inactive”.
With CCCC(=O)Nc1c(C(=O)NC2CC2)sc2nc(OC)c(Cl)c(C)c12 the Intrinsic activity was “inactive”.

In the case of CCCCCC(=O)Nc1c(C(=O)NC2CC2)sc2nc(OC)c(Cl)c(C)c12, the “log(IA)” value is reported as “inactive”.
In the case of COc1nc2sc(C(=O)NC3CC3)c(NC(C)=O)c2c(C)c1Cl, the “log(IA)” value is reported as “inactive”.
With CCCC(=O)Nc1c(C(=O)NC2CC2)sc2nc(OC)c(Cl)c(C)c12 the “log(IA)” value was “inactive”.
